In US9581587B2, “Sperm staining and sorting methods” (INGURAN, LLC, priority 2011, dated 2017):

Test system: sperm
Assay: Split quality, split enhancing dyes at various concentrations and incubation times (Example 10)
Assay type: cell-based, bulls
Conditions: 15, 45, 125 μM; 30-75 minutes; averaged over 8 bulls
Method: Eight bulls were collected, including 4 Jersey bulls, 3 Holstein bulls and one mixed dairy-breed. The ejaculates were collected at concentrations ranging from 1700×10^6 sperm/ml to 1100×10^6 sperm/ml and all had progressive motility of a least 60%.
Sperm from each bull was extended to 160 million per ml with a first buffer, (TALP described in table 1 at a pH 7.4) and stained with 64 μM (164/2 mL) Hoechst 33342 at 34° C. Additionally, Phenol Red, Red Food Dye No. 2, Red Food Dye No. 3, and Red Food Dye No. 4, were each tested as split enhancing dyes in the first buffer at concentrations of 15 μM, 45 μM and 125 μM. For each bull, each concentration of each dye was incubated for periods of 30 minutes, 45 minutes, 60 minutes, and 75 minutes were utilized before a second buffer with an additional dye was applied.
Each sample was then extended in an equal volume of a second buffer which comprised a 5.5 pH modified TALP having 25 μM yellow food dye No. 6 (acting as a dead quenching dye) in addition to the split enhancing dye provided in the first buffer. The second buffer was applied to every sample at 30 minutes, 45 minutes, 60 minutes, and 75 minutes. A control was additionally taken without any split enhancing dye for every bull at every time interval.
Sorting was performed on a MoFlo SX (Beckman Coulter, USA) in substantially the same manner described in Example 5. After calibration, screen shots of sorting histograms were taken and split quality was measured by peak to valley ratios in the same way described in Example 5 with reference to FIG. 4 and the resulting data, averaged over all 8 bulls, is found in Tables 18-21. Additionally, screen shots of bivariate plots were taken to measure the added dead quenching capacity of the mixed dead quenching and split enhancing dyes.

O=S1(=O)OC(c2ccc(O)cc2)(c2ccc(O)cc2)c2ccccc21 [Phenol Red, phenolsulfonphthalein]
split enhancing effect compared to control: provided consistent split improvements at all concentrations after 30 minutes
